This is an account of results in ChEMBL document CHEMBL4400519, “Indazolylketones as new multitarget cannabinoid drugs” (Eur J Med Chem, 2019).

Calls of active or inactive are those of the source. The calls are words filed in the database; no cut-off is given here.

In experiment [1] the target is T1, Cannabinoid receptor (Mus musculus) (UniProt P47746+P47936). Nature of the experiment: Agonist activity at cannabinoid receptor in ICR mouse vas deferens assessed as inhibition of electrically induced contractions at 8.1 x 10^-6 M after 10 mins in presence of CB2 antagonist AM630 relative to control. The experiment is classed as protein assay.
T1 sequence (P47746 whole entry, looked up): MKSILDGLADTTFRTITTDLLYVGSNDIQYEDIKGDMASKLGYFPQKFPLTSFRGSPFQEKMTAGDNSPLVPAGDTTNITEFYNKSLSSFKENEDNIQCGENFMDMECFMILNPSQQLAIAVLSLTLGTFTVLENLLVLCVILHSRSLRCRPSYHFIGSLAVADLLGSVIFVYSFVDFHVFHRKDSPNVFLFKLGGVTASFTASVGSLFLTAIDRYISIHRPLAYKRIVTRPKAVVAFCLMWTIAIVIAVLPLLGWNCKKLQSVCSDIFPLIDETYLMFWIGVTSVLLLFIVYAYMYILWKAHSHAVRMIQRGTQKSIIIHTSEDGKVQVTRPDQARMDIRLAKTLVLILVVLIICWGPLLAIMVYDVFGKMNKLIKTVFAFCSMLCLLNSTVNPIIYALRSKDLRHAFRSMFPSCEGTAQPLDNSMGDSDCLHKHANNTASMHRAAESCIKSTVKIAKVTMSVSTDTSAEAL
T1 sequence (P47936 whole entry, looked up): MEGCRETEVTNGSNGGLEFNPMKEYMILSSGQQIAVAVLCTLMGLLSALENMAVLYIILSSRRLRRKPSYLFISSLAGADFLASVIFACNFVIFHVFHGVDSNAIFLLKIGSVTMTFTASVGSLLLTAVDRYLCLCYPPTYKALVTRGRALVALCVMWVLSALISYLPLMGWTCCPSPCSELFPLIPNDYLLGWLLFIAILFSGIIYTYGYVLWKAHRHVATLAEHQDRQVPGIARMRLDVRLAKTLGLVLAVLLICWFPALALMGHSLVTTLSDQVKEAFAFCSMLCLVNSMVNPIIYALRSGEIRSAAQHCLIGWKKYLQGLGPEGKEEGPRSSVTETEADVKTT
The target in experiment [2] is T1, Cannabinoid receptor (Mus musculus). Nature of the experiment: Agonist activity at cannabinoid receptor in ICR mouse vas deferens assessed as inhibition of electrically induced contractions at 3 x 10^-7 M after 10 mins in presence of CB1 antagonist AM251 relative to control. It is filed as protein assay.
For experiment [3] the target is unchanged. Nature of the experiment: Agonist activity at cannabinoid receptor in ICR mouse vas deferens assessed as inhibition of electrically induced contractions at 9 x 10^-7 M after 10 mins in presence of CB1 antagonist AM251 relative to control. The experiment is classed as protein assay.
Experiment [4] has the same target. Nature of the experiment: Agonist activity at cannabinoid receptor in ICR mouse vas deferens assessed as inhibition of electrically induced contractions at 2.7 x 10^-6 M after 10 mins in presence of CB1 antagonist AM251 relative to control. It is filed as protein assay.
Experiment [5] has the same target. Put plainly: Agonist activity at cannabinoid receptor in ICR mouse vas deferens assessed as inhibition of electrically induced contractions at 1.82 x 10^-5 M after 10 mins in presence of CB2 antagonist AM630 relative to control. It is filed as protein assay.
For experiment [6] the target is unchanged. Nature of the experiment: Agonist activity at cannabinoid receptor in ICR mouse vas deferens assessed as inhibition of electrically induced contractions at 2.7 x 10^-6 M after 10 mins in presence of CB2 antagonist AM630 relative to control. It is filed as protein assay.
A short description of experiment [7]: Antioxidant activity assessed as trolox equivalent of APPH-induced radical scavenging activity by ORAC-FL assay. The experiment is classed as functional.
The target of experiment [8] is T1, Cannabinoid receptor (Mus musculus). Put plainly: Agonist activity at cannabinoid receptor in ICR mouse vas deferens assessed as inhibition of electrically induced contractions at 9 x 10^-7 M after 10 mins relative to control. The experiment is classed as protein assay.
Experiment [9] shares this target. Nature of the experiment: Agonist activity at cannabinoid receptor in ICR mouse vas deferens assessed as inhibition of electrically induced contractions at 10^-7 M after 10 mins in presence of CB2 antagonist AM630 relative to control. The experiment is classed as protein assay.
For experiment [10] the target is unchanged. Nature of the experiment: Agonist activity at cannabinoid receptor in ICR mouse vas deferens assessed as inhibition of electrically induced contractions at 8.1 x 10^-6 M after 10 mins in presence of CB1 antagonist AM251 relative to control. It is filed as protein assay.
Another experiment addresses Cholinesterase (Homo sapiens, UniProt P06276). Nature of the experiment: Inhibition of human serum BChE using butyrylthiocholine as substrate by Ellman's assay. (In general: DTNB colorimetry detects thiols as they appear.)
The target in experiment [11] is Beta-secretase 1 (Homo sapiens) (UniProt P56817). Nature of the experiment: Inhibition of human BACE1 at 10 uM incubated for 60 mins using rhodamine-EVNLDAEFK-quencher substrate by FRET assay.
Chain of Beta-secretase 1 (Homo sapiens) (P56817 whole entry): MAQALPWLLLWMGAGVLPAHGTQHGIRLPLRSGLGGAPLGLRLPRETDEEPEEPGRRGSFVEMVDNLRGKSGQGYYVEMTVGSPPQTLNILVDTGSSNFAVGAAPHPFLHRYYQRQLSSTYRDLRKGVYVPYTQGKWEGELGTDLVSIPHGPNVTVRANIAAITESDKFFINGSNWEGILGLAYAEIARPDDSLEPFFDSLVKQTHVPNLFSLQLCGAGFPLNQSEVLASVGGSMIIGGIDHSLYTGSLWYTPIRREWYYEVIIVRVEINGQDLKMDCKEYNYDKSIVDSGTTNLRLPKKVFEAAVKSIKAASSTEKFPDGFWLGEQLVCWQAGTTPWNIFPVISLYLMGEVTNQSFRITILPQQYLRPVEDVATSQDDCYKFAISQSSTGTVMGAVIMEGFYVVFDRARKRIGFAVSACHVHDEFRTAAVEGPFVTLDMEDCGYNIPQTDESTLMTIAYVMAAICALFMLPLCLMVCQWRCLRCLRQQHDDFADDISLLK
The target in experiment [12] is T1, Cannabinoid receptor (Mus musculus). Put plainly: Agonist activity at cannabinoid receptor in ICR mouse vas deferens assessed as inhibition of electrically induced contractions at 9 x 10^-7 M after 10 mins in presence of CB2 antagonist AM630 relative to control. It is filed as protein assay.
In the next experiment the target is Acetylcholinesterase (Homo sapiens, UniProt P22303). Put plainly: Inhibition of human erythrocyte AChE using acetylthiocholine as substrate by Ellman's assay.
Chain of Acetylcholinesterase (P22303 whole entry): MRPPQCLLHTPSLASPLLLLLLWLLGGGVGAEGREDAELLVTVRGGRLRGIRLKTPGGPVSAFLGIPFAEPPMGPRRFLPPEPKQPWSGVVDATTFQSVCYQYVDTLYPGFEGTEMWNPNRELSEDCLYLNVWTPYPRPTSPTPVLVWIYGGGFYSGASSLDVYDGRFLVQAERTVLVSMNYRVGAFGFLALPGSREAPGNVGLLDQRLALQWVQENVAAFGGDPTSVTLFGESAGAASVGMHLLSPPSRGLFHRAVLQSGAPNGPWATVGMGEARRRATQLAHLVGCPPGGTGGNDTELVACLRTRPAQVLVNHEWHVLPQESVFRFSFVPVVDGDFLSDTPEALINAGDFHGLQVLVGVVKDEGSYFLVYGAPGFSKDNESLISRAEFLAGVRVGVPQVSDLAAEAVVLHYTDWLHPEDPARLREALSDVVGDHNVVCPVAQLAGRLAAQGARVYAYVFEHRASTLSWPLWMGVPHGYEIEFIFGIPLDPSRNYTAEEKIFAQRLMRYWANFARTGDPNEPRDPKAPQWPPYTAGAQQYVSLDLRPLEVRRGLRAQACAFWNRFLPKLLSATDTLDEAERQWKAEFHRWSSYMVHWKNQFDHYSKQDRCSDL
Experiment [13] has as its target T1, Cannabinoid receptor (Mus musculus). Put plainly: Agonist activity at cannabinoid receptor in ICR mouse vas deferens assessed as inhibition of electrically induced contractions at 2.7 x 10^-6 M after 10 mins relative to control. It is filed as protein assay.
The target is the same in experiment [14]. Nature of the experiment: Agonist activity at cannabinoid receptor in ICR mouse vas deferens assessed as inhibition of electrically induced contractions at 8.1 x 10^-6 M after 10 mins relative to control. The experiment is classed as protein assay.
For experiment [15] the target is unchanged. Nature of the experiment: Agonist activity at cannabinoid receptor in ICR mouse vas deferens assessed as inhibition of electrically induced contractions at 3 x 10^-7 M after 10 mins in presence of CB2 antagonist AM630 relative to control. It is filed as protein assay.
For experiment [16] the target is unchanged. Nature of the experiment: Agonist activity at cannabinoid receptor in ICR mouse vas deferens assessed as inhibition of electrically induced contractions at 3 x 10^-7 M after 10 mins relative to control. It is filed as protein assay.
The target is the same in experiment [17]. Nature of the experiment: Agonist activity at cannabinoid receptor in ICR mouse vas deferens assessed as inhibition of electrically induced contractions at 1.82 x 10^-5 M after 10 mins relative to control. The experiment is classed as protein assay.
Experiment [18] has the same target. Nature of the experiment: Agonist activity at cannabinoid receptor in ICR mouse vas deferens assessed as inhibition of electrically induced contractions at 10^-7 M after 10 mins relative to control. The experiment is classed as protein assay.
The target is the same in experiment [19]. Nature of the experiment: Agonist activity at cannabinoid receptor in ICR mouse vas deferens assessed as inhibition of electrically induced contractions at 10^-7 M after 10 mins in presence of CB1 antagonist AM251 relative to control. The experiment is classed as protein assay.
For experiment [20] the target is unchanged. Put plainly: Agonist activity at cannabinoid receptor in ICR mouse vas deferens assessed as inhibition of electrically induced contractions at 1.82 x 10^-5 M after 10 mins in presence of CB1 antagonist AM251 relative to control. The experiment is classed as protein assay.

Chain of Cholinesterase (P06276 whole entry): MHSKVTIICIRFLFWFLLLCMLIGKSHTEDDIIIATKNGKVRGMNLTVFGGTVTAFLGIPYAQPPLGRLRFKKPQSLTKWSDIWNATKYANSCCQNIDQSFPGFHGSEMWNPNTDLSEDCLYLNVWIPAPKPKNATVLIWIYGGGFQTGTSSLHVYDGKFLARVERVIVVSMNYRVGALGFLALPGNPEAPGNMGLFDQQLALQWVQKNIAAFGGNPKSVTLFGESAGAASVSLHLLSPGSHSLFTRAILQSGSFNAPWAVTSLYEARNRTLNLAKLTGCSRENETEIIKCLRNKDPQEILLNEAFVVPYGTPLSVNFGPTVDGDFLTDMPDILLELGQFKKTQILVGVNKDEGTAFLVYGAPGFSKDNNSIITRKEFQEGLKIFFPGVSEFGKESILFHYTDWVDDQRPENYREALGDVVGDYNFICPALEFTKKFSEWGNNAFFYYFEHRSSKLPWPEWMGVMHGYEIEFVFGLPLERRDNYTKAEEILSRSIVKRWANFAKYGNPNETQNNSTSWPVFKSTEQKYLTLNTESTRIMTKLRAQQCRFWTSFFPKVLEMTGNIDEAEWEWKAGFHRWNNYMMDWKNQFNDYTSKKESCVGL

Regarding `O=C(c1ccccc1Cl)n1nc(OCCCN2CCCCC2)c2ccccc21`, the inhibition is 34.3% in experiment [1]; -0.4% in [2]; 4.7% in [3]; 10.7% in experiment [4]; 79.8% in [5]; 9.3% in experiment [6]. Further, the inhibition in experiment [8] is 8.9%; in [9], -7.9%; in experiment [10], 51.5%; in experiment [11] it was 12%; in [12], 6.2%; in experiment [13], 13%. Besides, the inhibition in experiment [14] was 42.8%; in experiment [15] it was -7%; in experiment [16] it was 2.8%; in experiment [17] it was 87.3%; in [18] it was -2.2%; in [19] it was -1.7%. In addition, in experiment [20], the inhibition is 88.2%. The Activity in experiment [7] turned out to be 0.28 equiv. In addition, the IC50 against Cholinesterase came to 0.07 µM; against Acetylcholinesterase, 9.7 µM.

On to `O=C(c1cccc(Cl)c1Cl)n1nc(OCCN2CCCCC2)c2ccccc21`, for which the inhibition is 60.2% in [1]; -0.9% in [2]; 1% in experiment [3]; 3.1% in experiment [4]; 78.2% in experiment [5]; 8.6% in experiment [6]. For the same compound, the inhibition in [8] was 15.6%; in experiment [9], -1.2%; in experiment [10], 23.5%; in experiment [11] it was 18.1%; in experiment [12] it was 2.4%; in experiment [13] it was 29.4%. For the same compound, the inhibition in experiment [14] was 80.5%; in experiment [15] it was -1.3%; in [16], 3.8%; in experiment [17], 87.2%; in experiment [18], 1.3%; in experiment [19] it was -1.8%. For the same compound, the inhibition in experiment [20] came to 43.4%. Further, the result in [7] was inactive. Also, the results for the IC50 against Cholinesterase and against Acetylcholinesterase were 0.6 µM and 10.5 µM, respectively.

Take `O=C(c1c(F)ccc(F)c1F)n1nc(OCCN2CCCCC2)c2ccccc21`: the inhibition is 32.3% in experiment [1]; -3.5% in experiment [2]; 6.7% in experiment [3]; 10.4% in experiment [4]; 49.1% in experiment [5]; 12.8% in [6]. Besides, the inhibition was 20.8% in experiment [8]; -3.3% in [9]; 23.6% in experiment [10]; 14.3% in [11]; 4.4% in experiment [12]; 40.6% in experiment [13]. In addition, the inhibition was 60.9% in [14]; -1.7% in experiment [15]; 9.2% in [16]; 73.2% in [17]; 4.8% in [18]; -5.3% in experiment [19]. Also, in experiment [20], the inhibition was 37.1%. In experiment [7], the outcome was inactive. Further, the IC50 at Cholinesterase and at Acetylcholinesterase was 9.4 µM each time.

For `COc1ccc(CC(=O)n2nc(OCCN3CCCC3)c3ccccc32)cc1`, the inhibition in experiment [1] was 47.9%; in [2] it was -0.9%; in experiment [3], 2.4%; in [4], 12.2%; in [5], 78.6%; in [6], 14%. The inhibition in [8] is 13.7%; in experiment [9], 0.1%; in experiment [10], 44.3%; in experiment [11] it was 17%; in experiment [12], 6.4%; in experiment [13], 23.4%. In addition, the inhibition in experiment [14] is 50.3%; in experiment [15] it was 3.3%; in experiment [16], 7.9%; in experiment [17] it was 76.9%; in experiment [18] it was 2.4%; in [19], -1.7%. Besides, the inhibition in [20] worked out at 78.6%. The result in experiment [7] was inactive. In addition, the IC50 was 9 µM on Cholinesterase and above 10 µM at Acetylcholinesterase.

In the case of `O=C(c1ccccc1OCc1ccccc1)n1nc(OCCN2CCCC2)c2ccccc21`, the inhibition is 47.2% in experiment [1]; -0.5% in [2]; 1.3% in experiment [3]; 5.9% in experiment [4]; 76.7% in experiment [5]; 10.3% in experiment [6]. Further, the inhibition in experiment [8] is 7.7%; in experiment [9], -4%; in experiment [10], 38.8%; in experiment [11], 32%; in experiment [12], 2.7%; in experiment [13] it was 10.4%. Moreover, the inhibition was 32.5% in experiment [14]; -1.6% in experiment [15]; 3.7% in [16]; 68.1% in experiment [17]; 1.2% in experiment [18]; -1.9% in experiment [19]. For the same compound, the inhibition in experiment [20] was 71.2%. In addition, in [7], the result was inactive. Also, the IC50 on Cholinesterase was 0.39 µM; against Acetylcholinesterase, above 10 µM.

`COc1cc(C(=O)n2nc(OCCN3CCCC3)c3ccccc32)cc(OC)c1OC`: the inhibition was found to be 40% in experiment [1]; 6% in experiment [2]; 5.6% in experiment [3]; 15% in experiment [4]; 69.5% in [5]; 10.9% in [6]. Moreover, the inhibition in [8] was 14.6%; in experiment [9] it was -1%; in experiment [10] it was 42.4%; in experiment [11] it was 6%; in experiment [12], 4.1%; in experiment [13], 26.9%. Besides, the inhibition was 49.7% in experiment [14]; 0.8% in experiment [15]; 7% in experiment [16]; 78% in [17]; 3.2% in [18]; -0.7% in [19]. Further, in [20], the inhibition is 74%. Besides, the outcome in [7] was inactive. Further, the IC50 is above 10 µM at Cholinesterase and 11.6 µM against Acetylcholinesterase.

Consider `Cc1c(C(=O)NN2CCCCC2)nn(-c2ccc(Cl)cc2Cl)c1-c1ccc(I)cc1`, for which the inhibition in experiment [2] is -2%; in experiment [3], 12.1%; in [4], 38.4%; in experiment [10], 72.7%; in experiment [19], -7.3%; in experiment [20] it was 84.6%.

Turning to `Cc1c(C(=O)c2cccc3ccccc23)c2cccc3c2n1[C@H](CN1CCOCC1)CO3`, the inhibition was 54.8% in experiment [1]; -2.7% in experiment [2]; 2% in [3]; 11.5% in experiment [4]; 68.9% in experiment [5]; 33.2% in experiment [6]. Besides, the inhibition in [8] was 54.5%; in [9], -1.1%; in [10], 31.9%; in experiment [12], 22%; in experiment [13], 61.8%; in [14] it was 71.4%. Also, the inhibition in experiment [15] was 2%; in experiment [16], 32.7%; in [17] it was 81.3%; in [18], 17.8%; in experiment [19], -3.9%; in experiment [20], 52%.

In general, inhibition refers to the change of the read-out against control, counted positive when it falls. Usually IC50 stands for the point on the concentration scale where inhibition reaches its midpoint. A high value points to a need for much substance.
